Converted amounts (≈) assume the structure as drawn. Read-outs that look alike come from different tables or passages of the source.
Key:
[1] = test system: mixture of the bacterial organisms listed in Table II; assay: Multiple Challenge Test in styrene-butadiene latex; format: cell-based, bacteria listed in Table II; conditions: Styrene-Butadiene Latex Formulation; 10 challenges
Protocol: Additionally, the ability of the compounds of Table I to serve as preservatives in a variety of formulated industrial, household, and commercial products is tested using a Multiple Challenge Test Protocol. In this test, the formulations include a styrene-butadiene latex, a tape joint, a hand lotion, and a shampoo. The styrene-butadiene latex test formulation used is Latex DL 238A, available from The Dow Chemical Company. The compositions of the tape joint, hand lotion and shampoo test formulations can be found in Tables V-VII.
The formulations are separated into 50 g aliquots and placed in sterile bottles. An appropriate amount of a fresh one percent stock solution of the test compound in acetone-water is added to achieve the desired final concentrations. A small portion of each of the test formulations is streaked onto Tryptic Soy Agar (TSA) petri plates using sterile cotton swabs to ensure that the formulations are sterile. If the formulation is sterile, then it is inoculated with 0.1 ml of a mixture of equal aliquots of the 24 hour cultures of each of the bacterial organisms listed in Table II. The test formulations are then incubated at 30° C. After 24 hours, each sample is streaked onto a TSA petri plate using a sterile swab. All plates are then incubated at 30° C. for 48 hours and then rated for microbial growth using the rating system listed in Table VIII. Samples with a rating of 3 or less are reinoculated as described in the procedure for the first inoculation. Samples with a rating of 4 or greater are not reinoculated but after another 24 hours are restreaked on TSA agar.
The normal interpretation of the results is that a concentration of the antimicrobial being tested is considered to be effective if no ratings greater than a 3 are observed throughout the 10 challenges. The Minimum Effective Concentration (MEC), which is used to compare the activity of the antimicrobial additives in the end-use formulations, is the minimum level that is effective under the conditions of the Multiple Challenge Test.

Aspergillus niger (An) = assay: MIC in malt yeast agar, Aspergillus niger; format: cell-based, Aspergillus niger ATCC 16404; conditions: read-out: Minimum Inhibitory Concentration, An
Protocol: (§1) The minimum inhibitory concentration (MIC) for the compounds listed in Table I is determined for 9 bacteria, using nutrient agar, and 7 yeast and fungi, using malt yeast agar. A one percent solution of the test compound is prepared in a mixture of acetone and water. Nutrient agar is prepared at pH 6.8, representing a neutral medium, and at pH 8.2, representing an alkaline medium. The nutrient agars are prepared by adding 23 g of nutrient agar to one-liter of deionized water. In addition, the alkaline medium is prepared by adjusting a 0.04M solution of N-[tris-(hydroxymethyl)methyl]-glycine buffered deionized water with concentrated sodium hydroxide to a pH of […]. Malt yeast agar is prepared by adding 3 g yeast extract and 45 g malt agar per liter of deionized water. The specific agar is dispensed in 30 ml aliquots into 25×200 mm test tubes, capped and autoclaved for 15 minutes at 115° C. The test tubes containing the agar are cooled in a water bath until the temperature of the agar is 48° C. Then, an appropriate amount of the one percent solution of the test compound is added (except in the controls where no compound is added) to the respective test tubes so that the final concentrations are 500, 250, 100, 50, 25, 10, 5, 2.5, 1.0 and zero parts per million of the test compound in the agar, thus having a known concentration of test compound dispersed therein. The contents of the test tubes are then transferred to respective petri plates. After drying for 24 hours, the petri plates containing nutrient agar are inoculated with bacteria and those containing malt yeast agar are inoculated with yeast and fungi.
(§2) The inoculation with the yeast and fungi is accomplished as follows. Cultures of yeast and fungi are incubated for seven days on malt yeast agar at 30° C. These cultures are used to prepare suspensions by the following procedure. A suspension of each organism is prepared by adding 10 ml of sterile saline and 10 microliters of octylphenoxy polyethoxy ethanol (TRITON® X-100, a trademark of Rohm & Haas Company) to the agar slant of yeast or fungi. The sterile saline/octylphenoxy polyethoxy ethanol solution is then agitated with a sterile swab to suspend the microorganism grown on the slant. Each resulting suspension is diluted into sterile saline (1 part suspension: 9 parts sterile saline). Aliquots of these dilutions are placed in individual wells of Steer's Replicator and petri plates inoculated as previously described. The petri plates are incubated at 30° C. and read after 48 hours for yeast and 72 hours for fungi.
(§3) Table II lists the bacteria, yeast and fungi used in the MIC test described above along with their respective American Type Culture Collection (ATCC) identification numbers.
(§4) The following MIC and MEC antimicrobial tests, whose results are shown in Tables XIII-XVII, are performed using the same methods as described hereinabove.

Candida albicans (Ca) = assay: MIC in malt yeast agar, Candida albicans; format: cell-based, Candida albicans ATCC 10231; conditions: read-out: Minimum Inhibitory Concentration, Ca
Protocol: as §1, §2, §3, §4

Bacillus subtilis (Bs) = assay: MIC in nutrient agar, Bacillus subtilis; format: cell-based, Bacillus subtilis ATCC 8473
Protocol: as §1
(§5) The inoculation with bacteria is accomplished by using the following procedure. Twenty-four hour-cultures of each of the bacteria are prepared by incubating the respective bacteria in tubes containing nutrient broth for 24 hours at 30° C. in a shaker. Dilutions of each of the 24 hour-cultures are made so that nine separate suspensions (one for each of the nine test bacteria) are made, each containing 10^8 colony forming units (CFU) per ml of suspension of a particular bacteria. Aliquots of 0.3 ml of each of the bacterial suspensions are used to fill the individual wells of Steer's Replicator. For each microbial suspension, 0.3 ml was used to fill three wells (i.e., three wells of 0.3 ml each) so that for the nine different bacteria, 27 wells are filled. The Steer's Replicator is then used to inoculate both the neutral and alkaline pH nutrient agar petri plates.
(§6) The inoculated petri plates are incubated at 30° C. for 48 hours and then read to determine if the test compound which is incorporated into the agar prevented growth of the respective bacteria.
as §3, §4

[2] = test system: Pseudomonas aeruginosa (PRD-10); assay: MIC in nutrient agar, Pseudomonas aeruginosa PRD-10; format: cell-based, Pseudomonas aeruginosa ATCC 15442
Protocol: as §1, §5, §6, §3, §4

[3] = test system: Salmonella choleraesuis (Sc); assay: MIC in nutrient agar, Salmonella choleraesuis; format: cell-based, Salmonella choleraesuis ATCC 10708
Protocol: as §1, §5, §6, §3, §4

Fusarium oxysporum (Fo) = assay: MIC in malt yeast agar, Fusarium oxysporum; format: cell-based, Fusarium oxysporum ATCC 48112; conditions: read-out: Minimum Inhibitory Concentration, Fo
Protocol: as §1, §2, §3, §4

Proteus vulgaris (Pv) = assay: MIC in nutrient agar, Proteus vulgaris; format: cell-based, Proteus vulgaris ATCC 881
Protocol: as §1, §5, §6, §3, §4

[4] = Bacillus subtilis, pH 6.8; read-out: Minimum Inhibitory Concentration, Bs
[5] = Bacillus subtilis, pH 8.2, read-out: Minimum Inhibitory Concentration, Bs
[6] = Pseudomonas aeruginosa, pH 6.8; read-out: Minimum Inhibitory Concentration, PRD
[7] = Pseudomonas aeruginosa, pH 8.2; read-out: Minimum Inhibitory Concentration, PRD
[8] = Salmonella enterica, CHOLERAESUIS, pH 6.8; read-out: Minimum Inhibitory Concentration, Sc
[9] = Salmonella enterica, CHOLERAESUIS, pH 8.2; read-out: Minimum Inhibitory Concentration, Sc
[10] = pH 6.8, read-out: Minimum Inhibitory Concentration, Pv
[11] = pH 8.2, read-out: Minimum Inhibitory Concentration, Pv
[12] = Bacillus subtilis, pH 6.8, read-out: Minimum Inhibitory Concentration, Bs
[13] = Bacillus subtilis, pH 8.2; read-out: Minimum Inhibitory Concentration, Bs

Row | SMILES | MEC [1] | MIC (Aspergillus niger (An); malt yeast agar) | MIC (Candida albicans (Ca); malt yeast agar) | MIC (Bacillus subtilis (Bs); [4]) | MIC (Bacillus subtilis (Bs); [5]) | MIC [2, 6] | MIC [2, 7] | MIC [3, 8] | MIC [3, 9] | MIC (Fusarium oxysporum (Fo); malt yeast agar) | MIC (Proteus vulgaris (Pv); [10]) | MIC (Proteus vulgaris (Pv); [11]) | MIC (Bacillus subtilis (Bs); [12]) | MIC (Bacillus subtilis (Bs); [13]) | other results
1 | CCSC#CC#N [B, 3-ethylthio-2-propynenitrile] | 25 ppm | 2.5 µg/mL (≈ 22.5 µM) | < 1 µg/mL | 25 µg/mL (≈ 225 µM) | 25 µg/mL (≈ 225 µM) | 25 µg/mL (≈ 225 µM) | 25 µg/mL (≈ 225 µM) | 5 µg/mL (≈ 45 µM) | 10 µg/mL (≈ 90 µM) | < 1 µg/mL | < 1 µg/mL | 5 µg/mL (≈ 45 µM) |  |  | 
2 | N#CC#CSC1CCCC1 [C, 3-cyclopentylthio-2-propynenitrile] | 100 ppm | 2.5 µg/mL (≈ 16.5 µM) |  |  |  | 250 µg/mL (≈ 1650 µM) | 250 µg/mL (≈ 1650 µM) | < 10 µg/mL | 25 µg/mL (≈ 165 µM) | < 1 µg/mL | < 10 µg/mL | < 10 µg/mL | 100 µg/mL (≈ 661 µM) | 250 µg/mL (≈ 1650 µM) | 
3 | CSC#CC#N [Compound A, 3-methylthio-2-propynenitrile] | 10 ppm | 2.5 µg/mL (≈ 25.7 µM) | 0.5 µg/mL (≈ 5.15 µM) | 2.5 µg/mL (≈ 25.7 µM) |  | 2.5 µg/mL (≈ 25.7 µM) | 5 µg/mL (≈ 51.5 µM) | 2.5 µg/mL (≈ 25.7 µM) | 5 µg/mL (≈ 51.5 µM) | 0.5 µg/mL (≈ 5.15 µM) | < 1 µg/mL | 2.5 µg/mL (≈ 25.7 µM) |  | 5 µg/mL (≈ 51.5 µM) | Minimum Inhibitory Concentration, Bs (Bacillus subtilis (Bs); pH 8.2): 5 ppm; Minimum Inhibitory Concentration, PRD ([2]; pH 8.2): 5 ppm; Minimum Inhibitory Concentration, Sc ([3]; pH 8.2): 5 ppm
4 | CSC=C(Cl)C#N [Compound G, 2-chloro-3-(methylthio)-2-propenenitrile] |  |  |  |  | 10 µg/mL (≈ 74.8 µM) |  |  |  |  |  | 50 µg/mL (≈ 374 µM) | 5 µg/mL (≈ 37.4 µM) | 75 µg/mL (≈ 561 µM) |  | MIC (Aspergillus niger (An)): 50 µg/mL (≈ 374 µM); MIC (Candida albicans (Ca)): 50 µg/mL (≈ 374 µM); MIC ([2]; Pseudomonas aeruginosa, pH 6.8, read-out: Minimum Inhibitory Concentration, PRD): 50 µg/mL (≈ 374 µM); MIC ([2]; Pseudomonas aeruginosa, pH 8.2, read-out: Minimum Inhibitory Concentration, PRD): 10 µg/mL (≈ 74.8 µM); MIC ([3]; Salmonella enterica, CHOLERAESUIS, pH 6.8, read-out: Minimum Inhibitory Concentration, Sc): 50 µg/mL (≈ 374 µM); MIC ([3]; Salmonella enterica, CHOLERAESUIS, pH 8.2, read-out: Minimum Inhibitory Concentration, Sc): 5 µg/mL (≈ 37.4 µM); MIC (Fusarium oxysporum (Fo)): 50 µg/mL (≈ 374 µM)
5 | N#CC#CSc1ccc(Cl)cc1 [D, 3-(4-chlorophenylthio)-2-propynenitrile] | 100 ppm | < 1 µg/mL | < 1 µg/mL | < 10 µg/mL |  | 25 µg/mL (≈ 129 µM) | 100 µg/mL (≈ 516 µM) | < 10 µg/mL | 50 µg/mL (≈ 258 µM) | < 1 µg/mL | < 10 µg/mL | 50 µg/mL (≈ 258 µM) |  | 50 µg/mL (≈ 258 µM) | 

— patent US5198445A, “Composition and use of substituted 3-thio-2-propynenitriles as industrial antimicrobials” (The Dow Chemical Company, priority 1992, dated 1993)
